Experimental data taken from patent US20110275707A1, “SUBSTITUTED AFPO (6-ARYL-4H-FURO[3,2-C]PYRAN-4-ONE) DERIVATIVES AS ANTI-CANCER AGENTS” (priority 2008, published 2011).

Tested on: not given
Experiment: not given
Settings: not given

SMILES	melting point [°C]
COc1cc(OC)cc(-c2cc3oc(C)c(C)c3c(=O)o2)c1 [Compound 29, 6-(3,5-Dimethoxyphenyl)-2,3-dimethyl-4H-furo[3,2-c]pyran-4-one]	163 to 165
COc1cc(-c2cc3occ(C)c3c(=O)o2)cc(OC)c1OC [Compound 27, 3-Methyl-6-(3,4,5-trimethoxyphenyl)-4H-furo[3,2-c]pyran-4-one]	201 to 203
COc1cccc(-c2cc3occ(C)c3c(=O)o2)c1 [Compound 11, 6-(3-Methoxyphenyl)-3-methyl-4H-furo[3,2-c]pyran-4-one]	119 to 121
CCc1coc2cc(-c3cc(OC)cc(OC)c3)oc(=O)c12 [Compound 28, 6-(3,5-Dimethoxyphenyl)-3-ethyl-4H-furo[3,2-c]pyran-4-one]	131 to 133
Cc1coc2cc(-c3cccc(F)c3)oc(=O)c12 [Compound 14, 6-(3-Fluorophenyl)-3-methyl-4H-furo[3,2-c]pyran-4-one]	158 to 160
COc1ccc(-c2cc3occ(C)c3c(=O)o2)cc1 [Compound 17, 6-(4-Methoxyphenyl)-3-methyl-4H-furo[3,2-c]pyran-4-one]	146 to 148
Cc1coc2cc(-c3ccc(F)cc3)oc(=O)c12 [Compound 15, 6-(4-Fluorophenyl)-3-methyl-4H-furo[3,2-c]pyran-4-one]	175 to 177
COc1ccc(-c2cc3occ(C)c3c(=O)o2)cc1OC [Compound 22, 6-(3,4-Dimethoxyphenyl)-3-methyl-4H-furo[3,2-c]pyran-4-one]	154 to 156
Cc1coc2cc(-c3ccccc3)oc(=O)c12 [Compound 9, 3-Methyl-6-phenyl-4H-furo[3,2-c]pyran-4-one]	105 to 107
Cc1ccc(-c2cc3occ(C)c3c(=O)o2)cc1 [Compound 16, 3-Methyl-6-p-tolyl-4H-furo[3,2-c]pyran-4-one]	153 to 155
Cc1cccc(-c2cc3occ(C)c3c(=O)o2)c1 [Compound 10, 3-Methyl-6-m-tolyl-4H-furo[3,2-c]pyran-4-one]	135 to 137
COc1cccc(-c2cc3occ(C)c3c(=O)o2)c1OC [Compound 19, 6-(2,3-Dimethoxyphenyl)-3-methyl-4H-furo[3,2-c]pyran-4-one]	111 to 113
CCOc1cccc(-c2cc3occ(C)c3c(=O)o2)c1 [Compound 12, 6-(3-Ethoxyphenyl)-3-methyl-4H-furo[3,2-c]pyran-4-one]	128 to 130
COc1cc(OC)cc(-c2cc3occ(C)c3c(=S)o2)c1 [Compound 30, 6-(3,5-Dimethoxyphenyl)-3-methyl-4H-furo[3,2-c]pyran-4-thione]	147 to 149

The remaining lines, values ahead:

melting point [°C]	SMILES
171 to 173	Cc1cc(C)cc(-c2cc3occ(C)c3c(=O)o2)c1 [Compound 24, 6-(3,5-Dimethylphenyl)-3-methyl-4H-furo[3,2-c]pyran-4-one]
182 to 184	Cc1ccc(-c2cc3occ(C)c3c(=O)o2)cc1C [Compound 21, 6-(3,4-Dimethylphenyl)-3-methyl-4H-furo[3,2-c]pyran-4-one]
239 to 241	Cc1coc2cc(-c3cccc(O)c3O)oc(=O)c12 [Compound 20, 6-(2,3-Dihydroxyphenyl)-3-methyl-4H-furo[3,2-c]pyran-4-one]
258 to 260	Cc1coc2cc(-c3ccc(O)cc3)oc(=O)c12 [Compound 18, 6-(4-Hydroxyphenyl)-3-methyl-4H-furo[3,2-c]pyran-4-one]
225 to 227	Cc1coc2cc(-c3cccc(O)c3)oc(=O)c12 [Compound 13, 6-(3-Hydroxyphenyl)-3-methyl-4H-furo[3,2-c]pyran-4-one]
> 300	Cc1coc2cc(-c3cc(O)cc(O)c3)oc(=O)c12 [Compound 26, 6-(3,5-Dihydroxyphenyl)-3-methyl-4H-furo[3,2-c]pyran-4-one]
259 to 261	Cc1coc2cc(-c3ccc(O)c(O)c3)oc(=O)c12 [Compound 23, 6-(3,4-Dihydroxyphenyl)-3-methyl-4H-furo[3,2-c]pyran-4-one]
153 to 155	COc1cc(OC)cc(-c2cc3occ(C)c3c(=O)o2)c1 [Compound 25, 6-(3,5-Dimethoxyphenyl)-3-methyl-4H-furo[3,2-c]pyran-4-one]

Tested on: SK-BR-3 (HER2+) human tumor cell line
Experiment: Cell growth inhibition assay (SRB), SK-BR-3
Format: cell-based
Settings: SK-BR-3, compared with 1
Procedure: Cell Growth Inhibition Assay. All stock cultures are grown in T-25 flasks. Freshly trypsinized cell suspensions were seeded in 96-well microliter plates with compounds added from DMSO-diluted stock. The plates were incubated for an additional 72 h after attachment and drug addition, and the assay was terminated by 10% TCA. Then, 0.4% SRB dye in 1% HOAc was added to stain the cells for 10 minutes. Unbound dye was removed by repeated washing with 1% HOAc and the plates were air dried. Bound stain was subsequently solved with 10 mM trizma base, and the absorbance read at 515 nm. Growth inhibition of 50% (GI50) is calculated as the drug concentration, which caused a 50% reduction in the net protein increase in control cells during the drug incubation. The mean ED50 is the concentration of agent that reduces cell growth by 50% under the experimental conditions and is the average from at least two independent determinations. Variation between replicates was no more than 5% of the mean. The following human tumor cell lines were used in the assay: A549 (non small cell lung cancer), ZR-75-1 (estrogen receptor positive breast cancer), MDA MB-231 (estrogen receptor negative breast cancer), SKBR-3 (estrogen receptor negative, HER-2 over-expressing breast cancer), KB (nasopharyngeal carcinoma), KB-VIN (vincristine-resistant KB subline). […]

SMILES	potency against SK-BR-3 relative to 1
COc1cc(OC)cc(-c2cc3occ(C)c3c(=O)o2)c1 [Compound 25, 6-(3,5-Dimethoxyphenyl)-3-methyl-4H-furo[3,2-c]pyran-4-one]	approximately threefold
